Measured values published in patent US20250084061A1, “SULFONYL FUNCTIONAL COMPOUND, METHODS AND USES THEREOF” (Hubei Biopesticide Engineering Research Centre, priority 2023, published 2025).
Where two headings read alike, the source gives them in different places.

Tests used:
[1] = system: Pythium aphanidermatum; test: Bactericidal (fungicidal) activity by microdilution; assay type: cell-based
[2] = system: Botrytis cinerea; test: as above; assay type: cell-based
[3] = system: Alternaria kikuchiana; test: as above; assay type: cell-based
[4] = system: Magnaporthe oryzae; assay type: cell-based
[5] = system: Septoria nodorum Berk.; test: Bactericidal (fungicidal) activity by microdilution; assay type: cell-based
[6] = system: Fusarium oxysporum f. sp. Niveum; test: as above; assay type: cell-based
[7] = system: Thanatephorus cucumeris; test: as above; assay type: cell-based
[8] = system: Fusarium culmorum; test: as above; assay type: cell-based
[9] = system: Colletotrichum gloeobosporioids; test: as above; assay type: cell-based
[10] = system: Aphiscraccivora; test: Insecticidal activity, dipping method; assay type: in vivo
Description: (§1) The insecticidal activity of sulfonyl functional compounds in the above embodiments were tested for agricultural biological functions, and the targets of insecticidal activity were Heliothis armigera, Plutella xylostella and Aphiscraccivora.
(§2) The insecticidal activity of sulfonyl functional compounds against Aphiscraccivora was tested by the method of dipping. Mother liquors were prepared by the sulfonyl functional compounds provided in the above embodiments dissolved in ethanol, respectively. 500 mg/L, 250 mg/L or 125 mg/L test solution could be prepared by diluting the different mother liquors with a liquor that contained 0.1 mL/L of emulgator (Tween-80). Every test solution was tested twice (Rep1 and Rep2). A blank control was set up, and the activity results were compared with the blank control. The mortality rate of 0˜30%, 30˜50%, 50-70%, 70˜90%, or 90˜100% could be orderly set as 0, 3, 5, 7, or 9.

[11] = system: Rhizoctonia solani; test: Bactericidal (fungicidal) activity by microdilution; assay type: cell-based
[12] = system: Verticillium dahliae.kieb.; test: as above; assay type: cell-based
[13] = system: Plutella xylostella; test: Insecticidal activity, artificial feed surface coating method; assay type: in vivo; details: Plutella xylostella, read-out: Insecticidal activity (mortality rate grade) Plutella xylostella
Description: as §1
(§3) Using Heliothis armigera and Plutella xylostella as target, the insecticidal activities of sulfonyl functional compounds were tested by conventional artificial feed surface coating method. 300 microliters of artificial feed and 20 microliters of test solution were added to each well of the 24-well cell culture plate. The test solution was used in different concentrations and repeated twice (Rep1 and Rep2). The concentrations of the test solution were 500 mg/L, 250 mg/L and 125 mg/L, respectively.
as §2

[14] = system: Heliothis armigera; test: as above; assay type: in vivo; details: Helicoverpa armigera, read-out: Insecticidal activity (mortality rate grade) Heliothis armigera
Description: as §1, §3, §2

[15] = system: Leptosphaeria biglobosa; test: Bactericidal (fungicidal) activity by microdilution; assay type: cell-based
[16] = system: Corynespora leaf spot of tomato; test: as above; assay type: cell-based

## COC(=O)Nc1nc2ccccc2n1CCCS(=O)(=O)O [III-1]
[1]; 12.5 mg/L
  Fungicidal activity (antibacterial rate grade) Pythium aphanidematum: 3 (The antibacterial rate of 0˜30% could be set as 3 if the growth of the target is normal and consistent with that of the blank control)
[1]; 25 mg/L
  Fungicidal activity (antibacterial rate grade) Pythium aphanidematum: 3 (The antibacterial rate of 0˜30% could be set as 3 if the growth of the target is normal and consistent with that of the blank control)
[1]; 50 mg/L
  Fungicidal activity (antibacterial rate grade) Pythium aphanidematum: 3 (The antibacterial rate of 0˜30% could be set as 3 if the growth of the target is normal and consistent with that of the blank control)
[1]; 100 mg/L
  Fungicidal activity (antibacterial rate grade) Pythium aphanidematum: 3 (The antibacterial rate of 0˜30% could be set as 3 if the growth of the target is normal and consistent with that of the blank control)
[2]; 12.5 mg/L
  Fungicidal activity (antibacterial rate grade) Botrytis cinerea: 3 (The antibacterial rate of 0˜30% could be set as 3 if the growth of the target is normal and consistent with that of the blank control)
[2]; 25 mg/L
  Fungicidal activity (antibacterial rate grade) Botrytis cinerea: 3 (The antibacterial rate of 0˜30% could be set as 3 if the growth of the target is normal and consistent with that of the blank control)
[2]; 50 mg/L
  Fungicidal activity (antibacterial rate grade) Botrytis cinerea: 3 (The antibacterial rate of 0˜30% could be set as 3 if the growth of the target is normal and consistent with that of the blank control)
[2]; 100 mg/L
  Fungicidal activity (antibacterial rate grade) Botrytis cinerea: 3 (The antibacterial rate of 0˜30% could be set as 3 if the growth of the target is normal and consistent with that of the blank control)
[3]; 12.5 mg/L
  Fungicidal activity (antibacterial rate grade) Alternaria kikuchiana: 3 (The antibacterial rate of 0˜30% could be set as 3 if the growth of the target is normal and consistent with that of the blank control)
[3]; 25 mg/L
  Fungicidal activity (antibacterial rate grade) Alternaria kikuchiana: 3 (The antibacterial rate of 0˜30% could be set as 3 if the growth of the target is normal and consistent with that of the blank control)
[3]; 50 mg/L
  Fungicidal activity (antibacterial rate grade) Alternaria kikuchiana: 3 (The antibacterial rate of 0˜30% could be set as 3 if the growth of the target is normal and consistent with that of the blank control)
[3]; 100 mg/L
  Fungicidal activity (antibacterial rate grade) Alternaria kikuchiana: 3 (The antibacterial rate of 0˜30% could be set as 3 if the growth of the target is normal and consistent with that of the blank control)
[4]; 12.5 mg/L
  Fungicidal activity (antibacterial rate grade) Magnaporthe oryzae: 9 (The antibacterial rate of 90˜100% could be set as 9 if the target has totally no growth)
[4]; 25 mg/L
  Fungicidal activity (antibacterial rate grade) Magnaporthe oryzae: 9 (The antibacterial rate of 90˜100% could be set as 9 if the target has totally no growth)
[4]; 50 mg/L
  Fungicidal activity (antibacterial rate grade) Magnaporthe oryzae: 9 (The antibacterial rate of 90˜100% could be set as 9 if the target has totally no growth)
[4]; 100 mg/L
  Fungicidal activity (antibacterial rate grade) Magnaporthe oryzae: 9 (The antibacterial rate of 90˜100% could be set as 9 if the target has totally no growth)
[5]; 12.5 mg/L
  Fungicidal activity (antibacterial rate grade) Septoria nodorum Berk.: 9 (The antibacterial rate of 90˜100% could be set as 9 if the target has totally no growth)
[5]; 25 mg/L
  Fungicidal activity (antibacterial rate grade) Septoria nodorum Berk.: 9 (The antibacterial rate of 90˜100% could be set as 9 if the target has totally no growth)
[5]; 50 mg/L
  Fungicidal activity (antibacterial rate grade) Septoria nodorum Berk.: 9 (The antibacterial rate of 90˜100% could be set as 9 if the target has totally no growth)
[5]; 100 mg/L
  Fungicidal activity (antibacterial rate grade) Septoria nodorum Berk.: 9 (The antibacterial rate of 90˜100% could be set as 9 if the target has totally no growth)
[6]; 12.5 mg/L
  Fungicidal activity (antibacterial rate grade) Fusarium oxysporum f. sp. Niveum: 9 (The antibacterial rate of 90˜100% could be set as 9 if the target has totally no growth)
[6]; 25 mg/L
  Fungicidal activity (antibacterial rate grade) Fusarium oxysporum f. sp. Niveum: 9 (The antibacterial rate of 90˜100% could be set as 9 if the target has totally no growth)
[6]; 50 mg/L
  Fungicidal activity (antibacterial rate grade) Fusarium oxysporum f. sp. Niveum: 9 (The antibacterial rate of 90˜100% could be set as 9 if the target has totally no growth)
[6]; 100 mg/L
  Fungicidal activity (antibacterial rate grade) Fusarium oxysporum f. sp. Niveum: 9 (The antibacterial rate of 90˜100% could be set as 9 if the target has totally no growth)
[7]; 12.5 mg/L
  Fungicidal activity (antibacterial rate grade) Thanatephorus cucumeris: 9 (The antibacterial rate of 90˜100% could be set as 9 if the target has totally no growth)
[7]; 25 mg/L
  Fungicidal activity (antibacterial rate grade) Thanatephorus cucumeris: 9 (The antibacterial rate of 90˜100% could be set as 9 if the target has totally no growth)
[7]; 50 mg/L
  Fungicidal activity (antibacterial rate grade) Thanatephorus cucumeris: 9 (The antibacterial rate of 90˜100% could be set as 9 if the target has totally no growth)
[7]; 100 mg/L
  Fungicidal activity (antibacterial rate grade) Thanatephorus cucumeris: 9 (The antibacterial rate of 90˜100% could be set as 9 if the target has totally no growth)
[8]; 12.5 mg/L
  Fungicidal activity (antibacterial rate grade) Fusarium culmorum: 9 (The antibacterial rate of 90˜100% could be set as 9 if the target has totally no growth)
[8]; 25 mg/L
  Fungicidal activity (antibacterial rate grade) Fusarium culmorum: 9 (The antibacterial rate of 90˜100% could be set as 9 if the target has totally no growth)
[8]; 50 mg/L
  Fungicidal activity (antibacterial rate grade) Fusarium culmorum: 9 (The antibacterial rate of 90˜100% could be set as 9 if the target has totally no growth)
[8]; 100 mg/L
  Fungicidal activity (antibacterial rate grade) Fusarium culmorum: 9 (The antibacterial rate of 90˜100% could be set as 9 if the target has totally no growth)
[9]; 12.5 mg/L
  Fungicidal activity (antibacterial rate grade) Colletotrichum gloeobosporioids: 9 (The antibacterial rate of 90˜100% could be set as 9 if the target has totally no growth)
[9]; 25 mg/L
  Fungicidal activity (antibacterial rate grade) Colletotrichum gloeobosporioids: 9 (The antibacterial rate of 90˜100% could be set as 9 if the target has totally no growth)
[9]; 50 mg/L
  Fungicidal activity (antibacterial rate grade) Colletotrichum gloeobosporioids: 9 (The antibacterial rate of 90˜100% could be set as 9 if the target has totally no growth)
[9]; 100 mg/L
  Fungicidal activity (antibacterial rate grade) Colletotrichum gloeobosporioids: 9 (The antibacterial rate of 90˜100% could be set as 9 if the target has totally no growth)
[10]; 125 mg/L test solution
  Insecticidal activity (mortality rate grade) Aphiscraccivora: 0 (mortality rate of 0˜30%)
[10]; 250 mg/L test solution
  Insecticidal activity (mortality rate grade) Aphiscraccivora: 0 (mortality rate of 0˜30%)
[10]; 500 mg/L test solution
  Insecticidal activity (mortality rate grade) Aphiscraccivora: 0 (mortality rate of 0˜30%)
[11]; 12.5 mg/L
  Fungicidal activity (antibacterial rate grade) Rhizoctonia solani: 3 (The antibacterial rate of 0˜30% could be set as 3 if the growth of the target is normal and consistent with that of the blank control)
[11]; 25 mg/L
  Fungicidal activity (antibacterial rate grade) Rhizoctonia solani: 3 (The antibacterial rate of 0˜30% could be set as 3 if the growth of the target is normal and consistent with that of the blank control)
[11]; 50 mg/L
  Fungicidal activity (antibacterial rate grade) Rhizoctonia solani: 3 (The antibacterial rate of 0˜30% could be set as 3 if the growth of the target is normal and consistent with that of the blank control)
[11]; 100 mg/L
  Fungicidal activity (antibacterial rate grade) Rhizoctonia solani: 3 (The antibacterial rate of 0˜30% could be set as 3 if the growth of the target is normal and consistent with that of the blank control)
[12]; 12.5 mg/L
  Fungicidal activity (antibacterial rate grade) Verticillium dahliae. kieb.: 9 (The antibacterial rate of 90˜100% could be set as 9 if the target has totally no growth)
[12]; 25 mg/L
  Fungicidal activity (antibacterial rate grade) Verticillium dahliae. kieb.: 9 (The antibacterial rate of 90˜100% could be set as 9 if the target has totally no growth)
[12]; 50 mg/L
  Fungicidal activity (antibacterial rate grade) Verticillium dahliae. kieb.: 9 (The antibacterial rate of 90˜100% could be set as 9 if the target has totally no growth)
[12]; 100 mg/L
  Fungicidal activity (antibacterial rate grade) Verticillium dahliae. kieb.: 9 (The antibacterial rate of 90˜100% could be set as 9 if the target has totally no growth)
[13]; 125 mg/L test solution
  mortality at 125 µg/mL: 0 to 30%
[13]; 250 mg/L test solution
  mortality at 250 µg/mL: 0 to 30%
[13]; 500 mg/L test solution
  mortality at 500 µg/mL: 0 to 30%
[14]; 125 mg/L test solution
  mortality at 125 µg/mL: 0 to 30%
[14]; 250 mg/L test solution
  mortality at 250 µg/mL: 0 to 30%
[14]; 500 mg/L test solution
  mortality at 500 µg/mL: 0 to 30%
[15]; 12.5 mg/L
  Fungicidal activity (antibacterial rate grade) Leptosphaeria biglobosa: 9 (The antibacterial rate of 90˜100% could be set as 9 if the target has totally no growth)
[15]; 25 mg/L
  Fungicidal activity (antibacterial rate grade) Leptosphaeria biglobosa: 9 (The antibacterial rate of 90˜100% could be set as 9 if the target has totally no growth)
[15]; 50 mg/L
  Fungicidal activity (antibacterial rate grade) Leptosphaeria biglobosa: 9 (The antibacterial rate of 90˜100% could be set as 9 if the target has totally no growth)
[15]; 100 mg/L
  Fungicidal activity (antibacterial rate grade) Leptosphaeria biglobosa: 9 (The antibacterial rate of 90˜100% could be set as 9 if the target has totally no growth)
[16]; 12.5 mg/L
  Fungicidal activity (antibacterial rate grade) Corynespora leaf spot of tomato: 3 (The antibacterial rate of 0˜30% could be set as 3 if the growth of the target is normal and consistent with that of the blank control)
[16]; 25 mg/L
  Fungicidal activity (antibacterial rate grade) Corynespora leaf spot of tomato: 3 (The antibacterial rate of 0˜30% could be set as 3 if the growth of the target is normal and consistent with that of the blank control)
[16]; 50 mg/L
  Fungicidal activity (antibacterial rate grade) Corynespora leaf spot of tomato: 7 (The antibacterial rate of 70˜90% could be set as 7 if the target has small amounts of growth)
[16]; 100 mg/L
  Fungicidal activity (antibacterial rate grade) Corynespora leaf spot of tomato: 7 (The antibacterial rate of 70˜90% could be set as 7 if the target has small amounts of growth)
